# Patent publication US6737383B1, “Herbicidal oxadiazolidines” (priority 1999, dated 2004)
# Tests used:
# morningglory = assay: Test B pre/postemergence morningglory; type: in vivo, Ipomoea hederacea
# Method in brief: (§1)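 Test chemicals in a non-phytotoxic solvent mixture with surfactant were sprayed preemergence onto planted seeds and postemergence onto plants 2 to 18 cm tall (1- to 4-leaf stage). After twelve to sixteen days in a greenhouse, injury was visually rated against untreated controls from 0 (no effect) to 10 (complete control).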
# surinam grass = assay: Test B pre/postemergence surinam grass; type: in vivo, Brachiaria decumbens
# Method in brief: as §1
# purple nutsedge = assay: Test B pre/postemergence purple nutsedge; type: in vivo, Cyperus rotundus
# Method in brief: as §1
# duck salad = assay: Test B flood test duck salad; type: in vivo, Heteranthera limosa
# Method in brief: (§2)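 Read-out is a visual response score from 0 (no effect) to 10 (complete control), assigned by comparison with untreated controls. Treatment was applied at the 2-leaf stage, and plants stayed in the greenhouse for twelve to sixteen days before scoring.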
# bedstraw = assay: Test B pre/postemergence bedstraw; type: in vivo, Galium aparine; conditions: Preemergence
# Method in brief: as §1
# sugar beet = assay: Test B pre/postemergence sugar beet; type: in vivo, Beta vulgaris
# Method in brief: as §1
# rape = assay: Test B pre/postemergence rape; type: in vivo, Brassica napus
# Method in brief: as §1
# soybean = assay: Test B pre/postemergence soybean; type: in vivo, Glycine max
# Method in brief: as §1
# blackgrass = assay: Test B pre/postemergence blackgrass; type: in vivo, Alopecurus myosuroides
# Method in brief: as §1
# cocklebur = assay: Test B pre/postemergence cocklebur; type: in vivo, Xanthium strumarium
# Method in brief: as §1
# wheat = assay: Test B pre/postemergence wheat; type: in vivo, Triticum aestivum
# Method in brief: as §1
# velvetleaf = assay: Test B pre/postemergence velvetleaf; type: in vivo, Abutilon theophrasti
# Method in brief: as §1
# giant foxtail = assay: Test B pre/postemergence giant foxtail; type: in vivo, Setaria faberii
# Method in brief: as §1
# rice = assay: Test B flood test rice; type: in vivo, Oryza sativa
# Method in brief: as §2
# pigweed = assay: Test B pre/postemergence pigweed; type: in vivo, Amaranthus retroflexus
# Method in brief: as §1
# corn = assay: Test B pre/postemergence corn; type: in vivo, Zea mays
# Method in brief: as §1
# bamyardgrass = assay: Test B flood test barnyardgrass; type: in vivo, Echinochloa crus-galli
# Method in brief: as §2
# crabgrass = assay: Test B pre/postemergence crabgrass; type: in vivo, Digitaria sanguinalis
# Method in brief: as §1
# wild oat = assay: Test B pre/postemergence wild oat; type: in vivo, Avena fatua
# Method in brief: as §1
# smallflower flatsedge = assay: Test B flood test smallflower flatsedge; type: in vivo, Cyperus difformis
# Method in brief: as §2
# [1] = Postemergence, Rate 62 g/ha, scale of 0 to 10, 0 is no effect, 10 is complete control
# [2] = Postemergence, Rate 125 g/ha, scale of 0 to 10 where 0 is no effect and 10 is complete control
# [3] = Postemergence, Rate 250 g/ha, scale of 0 to 10, 0 is no effect, 10 is complete control
# [4] = Postemergence, Rate 500 g/ha, scale of 0 to 10 where 0 is no effect and 10 is complete control
# [5] = Preemergence, Rate 62 g/ha, scale 0 to 10 (0 no effect, 10 complete control)
# [6] = Preemergence, Rate 125 g/ha, scale of 0 to 10 where 0 is no effect and 10 is complete control
# [7] = Preemergence, Rate 500 g/ha, scale of 0 to 10 where 0 is no effect and 10 is complete control
# [8] = Rate 62 g/ha, flood test species, Pre-emergence, visual evaluation after twelve to sixteen days
# [9] = Rate 125 g/ha, under heading Pre-emergence, flood test species, visual evaluation after twelve to sixteen days
# [10] = Rate 250 g/ha, Pre-emergence (flood test species), scale 0 to 10, 0 is no effect, 10 is complete control
# [11] = Rate 500 g/ha, Pre-emergence section of Table B, 0 to 10 scale (0 no effect, 10 complete control)
compound,measurement,setting,value
CC(C)N(C(=O)n1oc(=O)n(CC[N+](=O)[O-])c1=O)c1ccc(F)cc1F [Compound 591],Morningglory plant response rating,morningglory; [1],0
same,"Plant response rating, Morningglory",morningglory; [2],0
same,Morningglory plant response rating,morningglory; [3],2
same,"Plant response rating, Morningglory",morningglory; [4],3
same,Morningglory plant response rating,morningglory; [5],0
same,Morningglory plant response rating,morningglory; [6],0
same,"Plant response rating, Morningglory",morningglory; [7],0
same,B. signalgrass plant response rating,surinam grass; [1],0
same,"Plant response rating, B. signalgrass",surinam grass; [2],0
same,B. signalgrass plant response rating,surinam grass; [3],0
same,"Plant response rating, B. signalgrass",surinam grass; [4],0
same,B. signalgrass plant response rating,surinam grass; [5],0
same,B. signalgrass plant response rating,surinam grass; [6],0
same,"B. signalgrass plant response rating (0 to 10 scale, 0 is no effect, 10 is complete control)","surinam grass; Preemergence, Rate 250 g/ha",0
same,B. signalgrass plant response rating,surinam grass; [7],0
same,Nutsedge plant response rating,purple nutsedge; [1],0
same,"Plant response rating, Nutsedge",purple nutsedge; [2],0
same,Nutsedge plant response rating,purple nutsedge; [3],0
same,"Plant response rating, Nutsedge",purple nutsedge; [4],0
same,Nutsedge plant response rating,purple nutsedge; [5],0
same,Nutsedge plant response rating,purple nutsedge; [6],0
same,"Plant response rating, Nutsedge",purple nutsedge; [7],0
same,"Plant response rating, Ducksalad (0 to 10 scale, 0 is no effect, 10 is complete control)",duck salad; [8],0
same,"Ducksalad plant response rating (0 to 10 scale, 0 is no effect, 10 is complete control)",duck salad; [9],0
same,Ducksalad plant response rating,duck salad; [10],0
same,Ducksalad plant response rating,duck salad; [11],0
same,Bedstraw plant response rating,"bedstraw; Rate 62 g/ha, scale 0 to 10 (0 no effect, 10 complete control)",0
same,Bedstraw plant response rating,"bedstraw; Rate 125 g/ha, scale of 0 to 10 where 0 is no effect and 10 is complete control",0
same,"Plant response rating, Sugarbeets",sugar beet; [2],0
same,Sugarbeets plant response rating,sugar beet; [3],0
same,"Plant response rating, Sugarbeets",sugar beet; [4],0
same,Sugarbeets plant response rating,sugar beet; [5],0
same,Sugarbeets plant response rating,sugar beet; [6],0
same,"Plant response rating, Sugarbeets",sugar beet; [7],0
same,Rape plant response rating,rape; [1],0
same,"Plant response rating, Rape",rape; [2],0
same,Rape plant response rating,rape; [3],0
same,"Plant response rating, Rape",rape; [4],0
same,Rape plant response rating,rape; [5],0
same,Rape plant response rating,rape; [6],0
same,"Plant response rating, Rape",rape; [7],0
same,"Plant response rating, Soybean",soybean; [2],1
same,Soybean plant response rating,soybean; [3],2
same,"Plant response rating, Soybean",soybean; [4],2
same,Soybean plant response rating,soybean; [5],0
same,Soybean plant response rating,soybean; [6],0
same,"Plant response rating, Soybean",soybean; [7],0
same,Blackgrass plant response rating,blackgrass; [1],0
same,"Plant response rating, Blackgrass",blackgrass; [2],0
same,Blackgrass plant response rating,blackgrass; [3],0
same,"Plant response rating, Blackgrass",blackgrass; [4],0
same,Blackgrass plant response rating,blackgrass; [5],0
same,Blackgrass plant response rating,blackgrass; [6],0
same,Blackgrass plant response rating (0 to 10 scale),"blackgrass; Preemergence, Rate 250 g/ha",0
same,Blackgrass plant response rating,blackgrass; [7],0
same,Cocklebur plant response rating,cocklebur; [1],0
same,"Plant response rating, Cocklebur",cocklebur; [2],0
same,Cocklebur plant response rating,cocklebur; [3],0
same,"Plant response rating, Cocklebur",cocklebur; [4],0
same,Cocklebur plant response rating,cocklebur; [5],0
same,Cocklebur plant response rating,cocklebur; [6],0
same,Cocklebur plant response rating (0 to 10 scale),"cocklebur; Preemergence, Rate 250 g/ha",0
same,"Plant response rating, Cocklebur",cocklebur; [7],0
same,"Plant response rating, Wheat",wheat; [2],0
same,Wheat plant response rating,wheat; [3],0
same,"Plant response rating, Wheat",wheat; [4],0
same,Wheat plant response rating,wheat; [5],0
same,Wheat plant response rating,wheat; [6],0
same,"Plant response rating, Wheat",wheat; [7],0
same,"Plant response rating, Velvetleaf",velvetleaf; [2],0
same,Velvetleaf plant response rating,velvetleaf; [3],0
same,"Plant response rating, Velvetleaf",velvetleaf; [4],0
same,Velvetleaf plant response rating,velvetleaf; [5],0
same,Velvetleaf plant response rating,velvetleaf; [6],0
same,"Plant response rating, Velvetleaf",velvetleaf; [7],0
same,Giant foxtail plant response rating,giant foxtail; [1],0
same,"Plant response rating, Giant foxtail",giant foxtail; [2],0
same,Giant foxtail plant response rating,giant foxtail; [3],0
same,"Plant response rating, Giant foxtail",giant foxtail; [4],0
same,Giant foxtail plant response rating,giant foxtail; [5],0
same,Giant foxtail plant response rating,giant foxtail; [6],0
same,"Plant response rating, Giant foxtail",giant foxtail; [7],0
same,"Plant response rating, Rice (0 to 10 scale, 0 is no effect, 10 is complete control)",rice; [8],0
same,"Rice plant response rating (0 to 10 scale, 0 is no effect, 10 is complete control)",rice; [9],0
same,Rice plant response rating,rice; [10],0
same,Rice plant response rating,rice; [11],0
same,"Plant response rating, Redroot pigweed",pigweed; [2],0
same,Redroot pigweed plant response rating,pigweed; [3],0
same,"Plant response rating, Redroot pigweed",pigweed; [4],0
same,Redroot pigweed plant response rating,pigweed; [5],0
same,Redroot pigweed plant response rating,pigweed; [6],0
same,"Plant response rating, Redroot pigweed",pigweed; [7],0
same,Corn plant response rating,corn; [1],0
same,"Plant response rating, Corn",corn; [2],0
same,Corn plant response rating,corn; [3],0
same,"Plant response rating, Corn",corn; [4],0
same,Corn plant response rating,corn; [5],0
same,Corn plant response rating,corn; [6],0
same,Corn plant response rating (0 to 10 scale),"corn; Preemergence, Rate 250 g/ha",0
same,"Plant response rating, Corn",corn; [7],0
same,"Plant response rating, Barnyardgrass (0 to 10 scale, 0 is no effect, 10 is complete control)",bamyardgrass; [8],0
same,"Barnyardgrass plant response rating (0 to 10 scale, 0 is no effect, 10 is complete control)",bamyardgrass; [9],0
same,Barnyardgrass plant response rating,bamyardgrass; [10],0
same,Barnyardgrass plant response rating,bamyardgrass; [11],0
same,Crabgrass plant response rating,crabgrass; [1],0
same,"Plant response rating, Crabgrass",crabgrass; [2],0
same,Crabgrass plant response rating,crabgrass; [3],0
same,"Plant response rating, Crabgrass",crabgrass; [4],0
same,Crabgrass plant response rating,crabgrass; [5],0
same,Crabgrass plant response rating,crabgrass; [6],0
same,"Plant response rating, Crabgrass",crabgrass; [7],0
same,"Plant response rating, Wild oats",wild oat; [2],0
same,Wild oats plant response rating,wild oat; [3],0
same,"Plant response rating, Wild oats",wild oat; [4],0
same,Wild oats plant response rating,wild oat; [5],0
same,Wild oats plant response rating,wild oat; [6],0
same,"Plant response rating, Wild oats",wild oat; [7],0
same,"Plant response rating, S. Flatsedge (0 to 10 scale, 0 is no effect, 10 is complete control)",smallflower flatsedge; [8],0
same,"S. Flatsedge plant response rating (0 to 10 scale, 0 is no effect, 10 is complete control)",smallflower flatsedge; [9],0
same,S. Flatsedge plant response rating,smallflower flatsedge; [10],0
same,S. Flatsedge plant response rating,smallflower flatsedge; [11],0
